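Cells were grown in 96-well plates and exposed to each compound for 48 hours at five concentrations; endpoints were interpolated linearly between bracketing concentrations, or set to the highest concentration if not reached. Abbreviation: GI50, concentration required for 50% inhibition of growth. TGI marks complete inhibition of growth.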
What was measured:
Assay in all cases: DTP human tumour cell line panel, 48 h
[1] = test system: DU-145 prostate
[2] = test system: HOP-92 NSCLC
[3] = test system: K-562 leukemia
[4] = test system: LOX IMVI melanoma
[5] = test system: M14 melanoma
[6] = test system: MDA-MB-435
[7] = test system: NCI-H522 lung
[8] = test system: RPMI-8226 leukemia
[9] = test system: U251 CNS
[10] = test system: UACC-62 melanoma

Row | SMILES | GI50 [1] [µM] | TGI [1] [µM] | GI50 [2] [µM] | TGI [2] [µM] | GI50 [3] [µM] | TGI [3] [µM] | GI50 [4] [µM] | TGI [4] [µM] | GI50 [5] [µM] | TGI [5] [µM] | GI50 [6] [µM] | TGI [6] [µM] | GI50 [7] [µM] | TGI [7] [µM] | GI50 [8] [µM] | TGI [8] [µM] | GI50 [9] [µM] | TGI [9] [µM] | GI50 [10] [µM] | TGI [10] [µM]
1 | O=C(Nc1ccccc1Cl)c1cccc(NC2=C(Cl)C(=O)N(Cc3ccccc3)C2=O)c1 | 28.5 | > 100 | 15 | > 100 | 2.67 | 35.3 | 7.96 | > 100 | 9.32 | 29.5 | 3.05 | 10.3 | 7.72 | 31.1 | 3.1 | 20.6 | 21 | > 100 | 7.36 | 51
2 | O=NN(CCCl)C(=O)NC1CCC(=O)NC1=O (stereo not given) |  | 1060 |  | 377 |  | 595 |  | 279 |  | 905 |  | 442 |  | 485 |  | 617 |  | 305 |  | 192
3 | O=c1c(O)cccn1CCCN(CCCn1cccc(O)c1=O)CCn1cccc(O)c1=O | 20.1 | > 100 | 6.1 | > 100 | 3.97 | > 100 | 2.13 | > 100 | 5.41 | 60.2 | 3.46 | > 100 | 7.35 | > 100 | 1.99 | > 100 | 1.84 | > 100 | 2.14 | 76
4 | O=C1CSC(c2ccccc2O)N1c1nnc(Cn2ccnc2)o1 (stereo not given) | 17.5 | 56.6 | 2.23 | 28.9 | 4.36 | > 100 | 6.58 | 24.8 | 7.97 | 43.9 | 2.35 | 8.55 | 12 | 33 | 3.52 | 24.4 | 11.7 | 63.6 | 11.5 | 26
5 | CCN1C(=O)N(CC)C2C1NN=c1s/c(=C\c3ccc[nH]3)c(=O)n12 (stereo not given) | 0.496 | > 100 | 13.4 | > 100 | 0.245 | > 100 | 0.578 | > 100 | 0.385 | > 100 | 0.0832 | 0.421 | 0.244 | 8.34 | 0.481 | > 100 | 0.446 | > 100 | 0.435 | > 100
6 | COc1cc2c(c(OC)c1OC)-c1c(cc3c(c1OC)OCO3)CC(C)C(C)(O)C2OC(=O)c1ccccc1 (stereo not given) |  | > 100 |  | 73.7 |  | > 100 |  | > 100 |  | > 100 |  | > 100 |  | > 100 |  | 79.3 |  | > 100 |  | > 100
7 | COc1cccc(CC(C)=C(c2ccc(OCCCN(C)C)cc2)c2ccc(OCCCN(C)C)cc2)c1 | 0.694 | 1.82 | 0.747 | 3.79 | 0.484 | 1.16 | 0.428 | 0.807 | 0.461 | 0.864 | 0.444 | 0.819 | 0.452 | 1 | 0.55 | 1.29 | 0.479 | 0.987 | 0.457 | 0.835
